According to patent US6057364A, “Fluoro-substituted adamantane derivatives” (Pfizer Inc, priority 1998, dated 2000):

Experiment: metabolic stability in liver microsomes (standard microsomal incubation, LC/MS)
Assay type: in vitro ADME
Details: 10 μM compound, 0.2 μM microsomal cytochrome P450, pH 7.4, 37° C, read-out: % Loss (amount of compound that was metabolically degraded)
Protocol: The metabolic stability of the active compounds may be assessed according to the following procedure. A standard microsomal incubation condition is prepared for assessing the rate of metabolism of the active compound in liver microsomes. The microsomal incubation condition comprises 100 mM potassium phosphate buffer (pH 7.4), 10 mM MgCl2, 0.5 mM NADP^+ (nicotinamide adenine dinucleotide phosphate) 4 mM glucose 6 phosphate, 10 unit/mL glucose 6 phosphate dehydrogenase, 0.2 μM microsomal cytochrome P450, and 10 μM active compound. The incubation is started by adding substrate to the reaction mixture that has been preincubated for approximately 3 minutes at 37° C. An aliquot is removed at 0, 1, 2, 5, 10, and 20 minute time points and added to an equal volume of methanol to quench the reaction. The precipitate in the samples is removed by centrifugation and the supernatants are stored at -20° C. The samples are analyzed by standard LC/MS to determine the amount of active compound that has been metabolically degraded.
The compounds illustrated in the chemical formula provided for the Table above were prepared as described in PCT published patent application WO 95/29909, which was published Nov. 9, 1995, entitled "Novel Acyclic And Cyclic Amides As Neurotransmitter Release Enhancers." The compounds illustrated above are pharmaceutically active compounds that enhance the release of neurotransmitters such as acetylcholine, dopamine and serotonin, and therefore are useful for treating Alzheimer's disease, age-associated memory impairment, Parkinson's disease and other central nervous system disorders in mammals, in particular humans. The metabolic stability of the above compounds was assessed according to the procedure described above. The metabolic stability of the above compounds is provided in the above table in the column marked "% Loss" which indicates the amount of compound that was metabolically degraded after 10 minutes in a standard microsomal incubation condition which was prepared as described above.

Row | metabolised at 10 min, 10 µM [%] | SMILES
1 | 10 | O=C1CC(Cc2ccncc2)(Cc2ccncc2)C(=O)N1C12CC3(F)CC(F)(CC(F)(C3)C1)C2 [F F F]
2 | 75 | O=C1CC(Cc2ccncc2)(Cc2ccncc2)C(=O)N1C12CC3CC(F)(CC(F)(C3)C1)C2 [F F H]
3 | 75 | O=C1CC(Cc2ccncc2)(Cc2ccncc2)C(=O)N1C12CC3CC(CC(F)(C3)C1)C2 [F H H]
4 | > 75 | O=C1CC(Cc2ccncc2)(Cc2ccncc2)C(=O)N1C12CC3CC(CC(C3)C1)C2 [H H H, reference compound]
